# Article PMC5218480 (PLoS ONE, 2017)
# Test system: MV-4-11 cells
# Assay: Gene expression microarray analysis (Affymetrix PrimeView) and GSEA
# Type: cell-based, human
# Set-up: RFU PODN (11730768_x_at) / Fold change /veh PODN (11730768_x_at) / RFU LINC00158 (11744669_a_at) / Fold change /veh LINC00158 (11744669_a_at) / RFU DUSP10 (11751237_a_at) / Fold change /veh DUSP10 (11751237_a_at) / RFU ID3 (11757404_x_at) / Fold change /veh ID3 (11757404_x_at) / RFU PLEKHG5 (11737974_s_at) / Fold change /veh PLEKHG5 (11737974_s_at) / RFU LRRC4B (11730491_at) / Fold change /veh LRRC4B (11730491_at) / RFU GIMAP4 (11747438_a_at) / Fold change /veh GIMAP4 (11747438_a_at) / RFU KRT8 (11758183_x_at) / Fold change /veh KRT8 (11758183_x_at) / RFU CNN1 (11734310_a_at) / Fold change /veh CNN1 (11734310_a_at) / RFU VPS37D (11726825_at) / Fold change /veh VPS37D (11726825_at) / RFU C10orf10 (11716522_x_at) / Fold change /veh C10orf10 (11716522_x_at) / RFU KIR2DL2 /// KIR2DL4 /// KIR2DL5A /// KIR2DL5B /// KIR2DS1 /// KIR2DS2 /// KIR2DS3 /// KIR2DS4 /// KIR3DL3 /// KIR3DL3 /// KIR3DS1 (11738374_at) / Fold change /veh KIR2DL2 /// KIR2DL4 /// KIR2DL5A /// KIR2DL5B /// KIR2DS1 /// KIR2DS2 /// KIR2DS3 /// KIR2DS4 /// KIR3DL3 /// KIR3DL3 /// KIR3DS1 (11738374_at) / RFU C1QL1 (11718748_at) / Fold change /veh C1QL1 (11718748_at) / RFU TMPRSS4 (11747572_a_at) / Fold change /veh TMPRSS4 (11747572_a_at) / RFU HAMP (11756126_x_at) / Fold change /veh HAMP (11756126_x_at) / RFU RNFT2 (11725882_a_at) / Fold change /veh RNFT2 (11725882_a_at) / RFU NR4A2 (11747474_a_at) / Fold change /veh NR4A2 (11747474_a_at) / RFU ABCC12 (11746883_a_at) / Fold change /veh ABCC12 (11746883_a_at) / RFU TMEM136 (11760407_x_at) / Fold change /veh TMEM136 (11760407_x_at) / RFU CLDN22 /// WWC2 (11732394_at) / Fold change /veh CLDN22 /// WWC2 (11732394_at) / RFU HLA-DPB1 (11760878_x_at) / Fold change /veh HLA-DPB1 (11760878_x_at) / RFU SPINT1 (11716480_a_at) / Fold change /veh SPINT1 (11716480_a_at) / RFU GAP43 (11754022_s_at) / Fold change /veh GAP43 (11754022_s_at) / RFU A4GNT (11735810_at) / Fold change /veh A4GNT (11735810_at) / RFU PRB3 (11715151_x_at) / Fold change /veh PRB3 (11715151_x_at) / RFU TUBB4B (11761932_at) / Fold change /veh TUBB4B (11761932_at) / RFU CAPN14 (11732068_a_at) / Fold change /veh CAPN14 (11732068_a_at) / RFU TMCC2 (11721928_a_at) / Fold change /veh TMCC2 (11721928_a_at) / RFU IRGQ (11745062_a_at) / Fold change /veh IRGQ (11745062_a_at) / RFU FAM174B (11720279_a_at) / Fold change /veh FAM174B (11720279_a_at) / RFU TMPRSS4 (11748680_a_at) / Fold change /veh TMPRSS4 (11748680_a_at) / RFU FAM212B (11763350_a_at) / Fold change /veh FAM212B (11763350_a_at) / RFU PLEKHG5 (11743358_a_at) / Fold change /veh PLEKHG5 (11743358_a_at) / RFU ZSCAN30 (11745921_a_at) / Fold change /veh ZSCAN30 (11745921_a_at) / RFU CMKLR1 (11741424_a_at) / Fold change /veh CMKLR1 (11741424_a_at) / RFU LOC101060620 /// MAPK8IP1 (11723275_at) / Fold change /veh LOC101060620 /// MAPK8IP1 (11723275_at) / RFU SPTSSB (11747773_x_at) / Fold change /veh SPTSSB (11747773_x_at) / RFU PRSS12 (11739890_at) / Fold change /veh PRSS12 (11739890_at) / RFU BIN1 (11741810_x_at) / Fold change /veh BIN1 (11741810_x_at) / RFU WNT11 (11732464_a_at) / Fold change /veh WNT11 (11732464_a_at) / RFU C10orf10 (11716521_a_at) / Fold change /veh C10orf10 (11716521_a_at) / RFU C5orf56 (11738089_at) / Fold change /veh C5orf56 (11738089_at) / RFU CYB561 (11721691_x_at) / Fold change /veh CYB561 (11721691_x_at) / RFU ANKRD19P (11752326_a_at) / Fold change /veh ANKRD19P (11752326_a_at) / RFU OR2T12 /// OR2T33 /// OR2T8 (11738714_s_at) / Fold change /veh OR2T12 /// OR2T33 /// OR2T8 (11738714_s_at) / RFU VCAN (11748164_a_at) / Fold change /veh VCAN (11748164_a_at) / RFU JSRP1 (11732532_at) / Fold change /veh JSRP1 (11732532_at) / RFU KRTAP10-11 (11738290_x_at) / Fold change /veh KRTAP10-11 (11738290_x_at) / RFU MYO3A (11730013_a_at) / Fold change /veh MYO3A (11730013_a_at) / RFU EBF3 (11725865_a_at) / Fold change /veh EBF3 (11725865_a_at) / RFU CAMK2N1 (11719241_x_at) / Fold change /veh CAMK2N1 (11719241_x_at) / RFU C5orf56 (11738088_a_at) / Fold change /veh C5orf56 (11738088_a_at) / RFU OLFML3 (11715873_a_at) / Fold change /veh OLFML3 (11715873_a_at) / RFU LOC100653217 /// NTM (11731650_a_at) / Fold change /veh LOC100653217 /// NTM (11731650_a_at) / RFU MAPK11 (11762145_a_at) / Fold change /veh MAPK11 (11762145_a_at) / RFU FIZ1 (11724087_x_at) / Fold change /veh FIZ1 (11724087_x_at) / RFU OASL (11726364_x_at) / Fold change /veh OASL (11726364_x_at) / RFU SOX15 (11748057_x_at) / Fold change /veh SOX15 (11748057_x_at) / RFU CD79A (11719716_a_at) / Fold change /veh CD79A (11719716_a_at) / RFU HIST1H1D (11736915_at) / Fold change /veh HIST1H1D (11736915_at) / RFU CASKIN2 (11723855_a_at) / Fold change /veh CASKIN2 (11723855_a_at) / RFU LOC730098 (11760151_x_at) / Fold change /veh LOC730098 (11760151_x_at) / RFU OR4N2 (11742367_at) / Fold change /veh OR4N2 (11742367_at) / RFU PRRT2 (11749266_a_at) / Fold change /veh PRRT2 (11749266_a_at) / RFU SNX32 (11753110_a_at) / Fold change /veh SNX32 (11753110_a_at) / RFU CDHR5 (11726645_a_at) / Fold change /veh CDHR5 (11726645_a_at) / RFU RCAN1 (11760418_a_at) / Fold change /veh RCAN1 (11760418_a_at) / RFU FAM167A (11723789_a_at) / Fold change /veh FAM167A (11723789_a_at) / RFU FAM26E (11764081_at) / Fold change /veh FAM26E (11764081_at) / RFU ISYNA1 (11749810_s_at) / Fold change /veh ISYNA1 (11749810_s_at) / RFU ACY1 (11761880_at) / Fold change /veh ACY1 (11761880_at) / RFU 11764098_at / Fold change /veh 11764098_at / RFU SAMD14 (11745864_x_at) / Fold change /veh SAMD14 (11745864_x_at) / RFU NPB (11741838_a_at) / Fold change /veh NPB (11741838_a_at) / RFU TMPRSS6 (11731388_a_at) / Fold change /veh TMPRSS6 (11731388_a_at) / RFU KRTAP10-2 (11738614_at) / Fold change /veh KRTAP10-2 (11738614_at) / RFU ARHGAP8 /// PRR5-ARHGAP8 (11727945_x_at) / Fold change /veh ARHGAP8 /// PRR5-ARHGAP8 (11727945_x_at) / RFU KRTAP5-7 /// NADSYN1 (11734609_at) / Fold change /veh KRTAP5-7 /// NADSYN1 (11734609_at) / RFU RASL12 (11751679_a_at) / Fold change /veh RASL12 (11751679_a_at) / RFU CDKN2B (11736163_a_at) / Fold change /veh CDKN2B (11736163_a_at) / RFU PRF1 (11729649_at) / Fold change /veh PRF1 (11729649_at) / RFU, ZNF638 /// ZNF638-IT1 / Fold change vs veh, ZNF638 /// ZNF638-IT1 / RFU, PANK3 / Fold change vs veh, PANK3 / RFU, SH3YL1 / Fold change vs veh, SH3YL1 / RFU, ZEB2 / Fold change vs veh, ZEB2 / RFU, NRIP1 / Fold change vs veh, NRIP1 / RFU, PTTG1IP / Fold change vs veh, PTTG1IP / RFU, CAPN2 / Fold change vs veh, CAPN2 / RFU, MED14 / Fold change vs veh, MED14 / RFU, SNORA58 / Fold change vs veh, SNORA58 / RFU, C1orf63 / Fold change vs veh, C1orf63 / RFU, LRRFIP1 / Fold change vs veh, LRRFIP1 / RFU, NDUFAF7 / Fold change vs veh, NDUFAF7 / RFU, SLC12A2 / Fold change vs veh, SLC12A2 / RFU, IBTK / Fold change vs veh, IBTK / RFU, ESF1 / Fold change vs veh, ESF1 / Fold change vs veh, TMEM50B / RFU, TAOK1 / Fold change vs veh, TAOK1 / RFU, ACBD3 / Fold change vs veh, ACBD3 / RFU, TMA16 / Fold change vs veh, TMA16 / RFU, RWDD3 / Fold change vs veh, RWDD3 / RFU, BCAT1 / Fold change vs veh, BCAT1 / RFU, EDEM3 / Fold change vs veh, EDEM3 / RFU, TMEM33 / Fold change vs veh, TMEM33 / RFU, WDR75 / Fold change vs veh, WDR75 / RFU, AHCTF1 / Fold change vs veh, AHCTF1 / RFU, TFRC / Fold change vs veh, TFRC / RFU, ZDHHC17 / Fold change vs veh, ZDHHC17 / RFU, NOM1 / Fold change vs veh, NOM1 / RFU, ARL8B / Fold change vs veh, ARL8B / RFU, ZBTB11 / Fold change vs veh, ZBTB11 / RFU, TAMM41 / Fold change vs veh, TAMM41 / RFU, KIAA1704 /// LOC100996395 / Fold change vs veh, KIAA1704 /// LOC100996395 / RFU, ING1 / Fold change vs veh, ING1 / RFU, TRMT61B / Fold change vs veh, TRMT61B / RFU, FUBP3 / Fold change vs veh, FUBP3 / RFU, TP53 / Fold change vs veh, TP53 / RFU, TNKS2 / Fold change vs veh, TNKS2 / RFU, ZFP14 / Fold change vs veh, ZFP14 / RFU, ACTR2 / Fold change vs veh, ACTR2 / RFU, PPP3R1 / Fold change vs veh, PPP3R1 / RFU, PIK3R1 / Fold change vs veh, PIK3R1 / RFU, HNRNPA1 / Fold change vs veh, HNRNPA1 / RFU, RNF170 / Fold change vs veh, RNF170 / RFU, ZNF28 / Fold change vs veh, ZNF28 / RFU, RNGTT / Fold change vs veh, RNGTT / RFU, OGT / Fold change vs veh, OGT / RFU, BRD1 / Fold change vs veh, BRD1 / RFU, MARS / Fold change vs veh, MARS / RFU, ZNF655 / Fold change vs veh, ZNF655 / RFU, FAHD1 / Fold change vs veh, FAHD1 / RFU, BDP1 / Fold change vs veh, BDP1 / RFU, LRRCC1 / Fold change vs veh, LRRCC1 / RFU, ARID1A / Fold change vs veh, ARID1A / RFU, ZNF146 / Fold change vs veh, ZNF146 / RFU, ZNF330 / Fold change vs veh, ZNF330 / RFU, GPN3 / Fold change vs veh, GPN3 / RFU, C9orf123 / Fold change vs veh, C9orf123 / RFU, N4BP2L2 / Fold change vs veh, N4BP2L2 / RFU, ARFIP1 / Fold change vs veh, ARFIP1 / RFU, FAM179B / Fold change vs veh, FAM179B / RFU, BCL10 / Fold change vs veh, BCL10 / RFU, UHRF1BP1L / Fold change vs veh, UHRF1BP1L / RFU, BET1 / Fold change vs veh, BET1 / RFU, CNOT2 / Fold change vs veh, CNOT2 / RFU, ZNF268 / Fold change vs veh, ZNF268 / Fold change vs veh, ZNF507 / RFU, DGCR2 / Fold change vs veh, DGCR2 / RFU, WDSUB1 / Fold change vs veh, WDSUB1 / Fold change vs veh, HSP90B1 /// MIR3652 / RFU, ADSS / Fold change vs veh, ADSS / RFU, GK / Fold change vs veh, GK / RFU, ZNF148 / Fold change vs veh, ZNF148 / RFU, TAF9 / Fold change vs veh, TAF9 / RFU, SLC1A5 / Fold change vs veh, SLC1A5 / RFU, SLMO2 / Fold change vs veh, SLMO2 / RFU, ABCC4 / Fold change vs veh, ABCC4 / RFU, LOC101060439 /// RAP1B / Fold change vs veh, LOC101060439 /// RAP1B / RFU, RFX7 / Fold change vs veh, RFX7 / RFU, GTPBP10 / Fold change vs veh, GTPBP10 / RFU, CNEP1R1 / Fold change vs veh, CNEP1R1 / RFU, BIVM-ERCC5 /// ERCC5 / Fold change vs veh, BIVM-ERCC5 /// ERCC5 / RFU, ILF3 / Fold change vs veh, ILF3 / RFU 11762660_at / Fold change /veh 11762660_at / RFU VCAN (11757783_s_at) / Fold change /veh VCAN (11757783_s_at) / RFU DDX43 (11728927_at) / Fold change /veh DDX43 (11728927_at) / RFU KRT8 (11758188_x_at) / Fold change /veh KRT8 (11758188_x_at) / RFU NKD1 (11759106_at) / Fold change /veh NKD1 (11759106_at) / RFU SRD5A1 (11742802_a_at) / Fold change /veh SRD5A1 (11742802_a_at) / RFU TPSAB1 /// TPSB2 (11721975_s_at) / Fold change /veh TPSAB1 /// TPSB2 (11721975_s_at) / RFU GSTM3 (11746129_a_at) / Fold change /veh GSTM3 (11746129_a_at) / RFU IL23R (11737362_x_at) / Fold change /veh IL23R (11737362_x_at) / RFU TMEM51 (11727254_a_at) / Fold change /veh TMEM51 (11727254_a_at) / RFU PIWIL2 (11732686_x_at) / Fold change /veh PIWIL2 (11732686_x_at) / RFU ORM1 (11744905_x_at) / Fold change /veh ORM1 (11744905_x_at) / RFU CCDC152 (11743942_at) / Fold change /veh CCDC152 (11743942_at) / RFU ECM1 (11717891_a_at) / Fold change /veh ECM1 (11717891_a_at) / RFU IL23R (11748794_a_at) / Fold change /veh IL23R (11748794_a_at) / RFU TNFAIP8L3 (11732012_x_at) / Fold change /veh TNFAIP8L3 (11732012_x_at) / RFU MBOAT4 (11741988_at) / Fold change /veh MBOAT4 (11741988_at) / RFU 11764193_at / Fold change /veh 11764193_at / RFU TMEM53 (11763286_at) / Fold change /veh TMEM53 (11763286_at) / RFU MAGEB2 (11727129_at) / Fold change /veh MAGEB2 (11727129_at) / RFU TMEM200A (11744735_a_at) / Fold change /veh TMEM200A (11744735_a_at) / RFU CCDC152 (11751479_a_at) / Fold change /veh CCDC152 (11751479_a_at) / RFU FAM211A (11726209_a_at) / Fold change /veh FAM211A (11726209_a_at) / RFU RGS16 (11746705_a_at) / Fold change /veh RGS16 (11746705_a_at) / RFU VCAN (11755009_s_at) / Fold change /veh VCAN (11755009_s_at) / RFU RHOB (11743442_s_at) / Fold change /veh RHOB (11743442_s_at) / RFU RGS16 (11720943_a_at) / Fold change /veh RGS16 (11720943_a_at) / RFU RGS16 (11720944_at) / Fold change /veh RGS16 (11720944_at) / RFU, VPS4B / Fold change vs veh, VPS4B / RFU, CREB1 / Fold change vs veh, CREB1 / RFU, DNAJC13 / Fold change vs veh, DNAJC13 / RFU, GNAQ / Fold change vs veh, GNAQ / RFU, CDK5R1 / Fold change vs veh, CDK5R1 / RFU, ZRANB3 / Fold change vs veh, ZRANB3 / RFU, CUL4A / Fold change vs veh, CUL4A / RFU, CCNY / Fold change vs veh, CCNY / RFU, UFL1 / Fold change vs veh, UFL1 / RFU, COG3 / Fold change vs veh, COG3 / RFU, DIAPH2 / Fold change vs veh, DIAPH2 / RFU, SKA2 / Fold change vs veh, SKA2 / RFU, AFF3 / Fold change vs veh, AFF3 / RFU, LMF1 / Fold change vs veh, LMF1 / RFU, IPO11 / Fold change vs veh, IPO11 / RFU, DFFB / Fold change vs veh, DFFB / RFU, FOXP1 / Fold change vs veh, FOXP1 / RFU, CARD8 / Fold change vs veh, CARD8 / RFU, STRN3 / Fold change vs veh, STRN3 / RFU, ADK / Fold change vs veh, ADK / RFU, RASSF2 / Fold change vs veh, RASSF2 / RFU, WIPF1 / Fold change vs veh, WIPF1 / RFU, LARP1B / Fold change vs veh, LARP1B / RFU, RASA1 / Fold change vs veh, RASA1 / RFU, RB1 / Fold change vs veh, RB1 / RFU, PPFIA1 / Fold change vs veh, PPFIA1 / RFU, MAT2A / Fold change vs veh, MAT2A / RFU, CCT5 / Fold change vs veh, CCT5 / RFU, WDR92 / Fold change vs veh, WDR92 / RFU, CUX1 / Fold change vs veh, CUX1 / RFU, TTC7A / Fold change vs veh, TTC7A / RFU, TMEM135 / Fold change vs veh, TMEM135 / RFU, DEPTOR / Fold change vs veh, DEPTOR / RFU, CPM / Fold change vs veh, CPM / RFU, DNAJB6 / Fold change vs veh, DNAJB6 / RFU, CACNA2D3 / Fold change vs veh, CACNA2D3 / RFU, DTX4 / Fold change vs veh, DTX4 / RFU, TFCP2 / Fold change vs veh, TFCP2 / RFU, GMCL1 /// GMCL1P1 / Fold change vs veh, GMCL1 /// GMCL1P1 / RFU, AEBP2 / Fold change vs veh, AEBP2 / RFU, SNHG1 /// SNORD22 /// SNORD25 /// SNORD26 /// SNORD27 /// SNORD28 /// SNORD29 /// SNORD31 / Fold change vs veh, SNHG1 /// SNORD22 /// SNORD25 /// SNORD26 /// SNORD27 /// SNORD28 /// SNORD29 /// SNORD31 / Fold change (Aza/veh), C12orf56 (ProbeSet 11735607_a_at) / Fold change (ACY-1035/veh), C12orf56 (ProbeSet 11735607_a_at) / Fold change (Aza/veh), FGFR1OP (ProbeSet 11751329_s_at) / Fold change (ACY-1035/veh), FGFR1OP (ProbeSet 11751329_s_at) / Fold change (Aza/veh), VPS36 (ProbeSet 11739960_a_at) / Fold change (ACY-1035/veh), VPS36 (ProbeSet 11739960_a_at) / RFU SYPL1 (11715823_x_at) / Fold change /veh SYPL1 (11715823_x_at) / RFU IGFBP7 (11715501_s_at) / Fold change /veh IGFBP7 (11715501_s_at) / RFU REEP3 (11722064_at) / Fold change /veh REEP3 (11722064_at) / RFU IGLL1 (11728026_x_at) / Fold change /veh IGLL1 (11728026_x_at): dose or concentration left out as unconfirmed
# Conditions: ProbeSet 11757268_x_at; LIST B
smiles,measurement,value
Nc1ccc(-c2cccs2)cc1NC(=O)c1ccc2c(c1)cc(C1CC1)n2CCN1CCOCC1 [ACY-1035],"Fold change vs veh, HNRNPA1",0.97
